According to PMC8211267, “Potent PDE4 inhibitor activates AMPK and Sirt1 to induce mitochondrial biogenesis” (PLoS ONE, 2021):

Biological target: PDE4D (Homo sapiens, UniProt Q08499)
Assay: recombinant PDE4 activity assay, [3H]cAMP hydrolysis, dose-response
Assay type: biochemical

PDE4D, sequence (Q08499 whole entry): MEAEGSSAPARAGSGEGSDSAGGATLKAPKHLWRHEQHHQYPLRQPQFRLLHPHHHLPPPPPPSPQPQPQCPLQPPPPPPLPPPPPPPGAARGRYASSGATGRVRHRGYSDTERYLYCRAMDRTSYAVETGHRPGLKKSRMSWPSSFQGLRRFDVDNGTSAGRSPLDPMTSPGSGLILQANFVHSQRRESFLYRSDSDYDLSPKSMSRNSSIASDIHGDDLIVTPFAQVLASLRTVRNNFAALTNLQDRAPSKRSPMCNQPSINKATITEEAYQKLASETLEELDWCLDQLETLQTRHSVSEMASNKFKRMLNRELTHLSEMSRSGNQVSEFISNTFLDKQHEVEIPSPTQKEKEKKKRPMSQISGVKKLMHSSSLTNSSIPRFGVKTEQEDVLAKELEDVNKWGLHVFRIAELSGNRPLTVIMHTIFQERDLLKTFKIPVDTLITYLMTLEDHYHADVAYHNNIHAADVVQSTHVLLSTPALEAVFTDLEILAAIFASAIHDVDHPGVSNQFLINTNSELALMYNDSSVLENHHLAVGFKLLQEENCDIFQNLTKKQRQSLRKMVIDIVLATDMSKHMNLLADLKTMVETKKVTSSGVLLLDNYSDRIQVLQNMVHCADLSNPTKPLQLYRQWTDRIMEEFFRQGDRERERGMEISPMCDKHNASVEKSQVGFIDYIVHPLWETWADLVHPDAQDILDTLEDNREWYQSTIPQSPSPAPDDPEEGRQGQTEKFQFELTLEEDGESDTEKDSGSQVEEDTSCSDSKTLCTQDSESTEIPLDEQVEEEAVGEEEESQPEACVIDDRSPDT

Structure (SMILES): COc1ccc(C(=O)Nc2ccccc2C)cc1OC [CBU91, 3,4-dimethoxy-N-(o-tolyl)benzamide]
- IC50: ~450 nM
